Columns and labels:
[1] = target: T1, hROMK1 (Kir1.1) (Homo sapiens, UniProt P48048); experiment: ^86Rb^+ Efflux Assay; format: cell-based; conditions: CHO-DHFR- cells stably expressing hROMK1; potency ranges
T1 construct: expressed in transfected cells
T1 sequence (P48048 1-391): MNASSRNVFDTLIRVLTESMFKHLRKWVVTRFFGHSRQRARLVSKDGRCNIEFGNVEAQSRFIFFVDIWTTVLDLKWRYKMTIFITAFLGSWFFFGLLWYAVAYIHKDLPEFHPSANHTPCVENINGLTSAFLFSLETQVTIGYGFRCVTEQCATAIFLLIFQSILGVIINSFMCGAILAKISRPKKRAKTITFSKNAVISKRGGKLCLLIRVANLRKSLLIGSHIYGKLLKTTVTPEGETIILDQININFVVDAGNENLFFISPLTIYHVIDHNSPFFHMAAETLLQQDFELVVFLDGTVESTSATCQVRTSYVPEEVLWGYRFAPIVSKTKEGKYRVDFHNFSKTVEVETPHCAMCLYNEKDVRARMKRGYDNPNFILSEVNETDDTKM
Protocol: (§1) Several assays may be used to measure functional inhibition of the ROMK channel by compounds of the instant invention. One primary assay that can be used is a functional ^86Rb^+ efflux assay that measures the ability of ROMK to permeate ^86Rb^+, in the absence or presence of test compound. Under control conditions, cells loaded with ^86Rb^+ and incubated in Rb^+-free medium display a time-dependent efflux of the isotope, the rate of which depends on number of functional channels. When cells are incubated in the presence of a channel inhibitor, efflux of ^86Rb^+ is prevented in a concentration-dependent manner, and IC50 values of inhibition by compounds can be accurately determined. This assay has been established with cell lines expressing either human, rat or dog ROMK channels, and can operate in 96- or 384-well format. Importantly, the human, rat, and dog ^86Rb^+ efflux assays can be carried out in the presence of up to 100% serum allowing, therefore, an accurate estimation of the effect of protein binding on the inhibitory activity of compounds of interest. Another ROMK functional assay makes use of the ability of thallium to permeate through open ROMK channels and increase the fluorescence of a dye previously loaded into the cells. Under control conditions, cells loaded with dye and exposed to thallium-containing medium display a time-dependent increase in fluorescence, the rate of which depends on number of functional channels. When cells are incubated in the presence of a channel inhibitor, the increase in fluorescence is attenuated in a concentration-dependent manner, and IC50 values of inhibition by compounds can be accurately determined. This assay has been established with cell lines expressing either human, or rat ROMK channels, and operates in 384-well format. Another assay for evaluation of the compounds of the instant invention and for evaluation of mechanism of action of compounds of Formula I relies on the measurement of the electrical current that is generated as potassium permeates through the channel. For these electrophysiological experiments, three different platforms, IonWorks, QPatch, or manual patch clamp, are used, depending on the experimental protocol under consideration. IonWorks operates in a 384-well format and allows accurate determination of IC50 values for inhibitors.
CHO-DHFR-cells stably expressing hROMK1 (Kir1.1) were grown at 37° C. in a 10% CO2 humidified incubator in Iscove's Modified Dulbecco's Medium (Gibco 12440) supplemented with HT Supplement, Penicillin/Streptomycin/Glutamine, G418 (500 μg/ml) and 10% FBS. Cells were seeded in Sterile and Tissue Culture Treated Packard CulturPlate White Opaque Microplates at a concentration of 5.0E5-7.0E5 cells/ml—PerkinElmer 6005680 (96-well); Corning 3707 (384 well) in complete media containing 1.5 μCi/ml Rubidium-86. Cells were incubated in 37° C.-10% CO2 incubator overnight. On the day of the experiment, the media was removed and cells washed with low K assay buffer. ^86Rb^+ efflux was initiated after addition of assay buffer±test compound followed by 35 min incubation at room temperature. ROMK-sensitive component of efflux was defined in the presence of 10 mM BaCl2. Assay buffer was removed and transferred to a plate and cells were solubilized in the presence of SDS. Radioactivity associated with assay and cell plate was determined.
• 1. Removed cell media and washed cells with low K assay buffer (126.9 mM NaCl, 4.6 mM KCl, 2 mM CaCl2, 1 mM MgCl2, 10 mM Hepes/NaOH; pH 7.4) • 200 μl for 96-well plate; 70 μl for 384-well plate • 2. Added assay buffer (121.5 mM NaCl, 10 mM KCl, 2 mM CaCl2, 1 mM MgCl2, 10 mM Hepes/NaOH; pH 7.4)±test compound to cells • 100 μl for 96-well plate; 50 μl for 384-well plate • 3. Incubated at ambient temperature (22-24° C.) for 35 min • 4.

[2] = target: T2, hROMK (hKir1.1) (Homo sapiens, UniProt P48048); experiment: Thallium Flux Assay (FluxOR, FLIPR-Tetra); format: cell-based; conditions: HEK293 cells stably expressing hROMK; potency ranges
T2 construct: expressed in transfected cells
T2 sequence (P48048 1-391): T1 sequence (P48048 1-391)
Protocol: as §1
HEK293 cells stably expressing hROMK (hKir1.1) were grown at 37° C. in a 10% CO2 humidified incubator in complete growth media: Dulbecco's Modified Eagle Medium supplemented with non-essential amino acids, Penicillin/Streptomycin/Glutamine, G418 and FBS. At >80% confluency, media was aspirated from the flask and rinsed with 10 ml Calcium/Magnesium-free PBS. 5 ml of 1× trypsin (prepared in Ca/Mg Free PBS) was added to T-225 flask and flask returned to 37° C./CO2 incubator for 2-3 minutes. To dislodge the cell, the side of the flask was gently banged by hand. Cells were completely triturated and then transferred to 25 ml complete media, and centrifuged at 1,500 rpm for 6 min followed by resuspension in complete growth media and cell concentration determined. For typical re-seeding, 4E6 cells/T-225 flask attained >80% confluency in 4 days. Under ideal growth conditions and appropriate tissue culture practices, this cell line was stable for 40-45 passages.
FluxOR™ Kit Components (Invitrogen F10017)
• FluxOR™ Reagent (Component A) • FluxOR™ Assay Buffer (Component B)—10× Concentrate • PowerLoad™ Concentrate (Component C)—100× Concentrate • Probenecid (Component D)—Lyophilized sample was kept at −20° C. Water soluble, 100× after solubilization in 1 ml water. Store at 4° C. • FluxOR™ Chloride-free Buffer (Component E)—5× Concentrate • Potassium sulfate (K2SO4) Concentrate (Component F)—125 mM in water. Stored at 4° C. • Thallium sulfate (Tl2SO4) Concentrate (Component G)—50 mM in water. […]

Structure (SMILES) | IC50 [1] | IC50 [2]
Cc1c(CC(O)C2CCN(C[C@H](O)c3ccc4c(c3C)COC4=O)CC2)ccc2c1COC2=O (stereo partly drawn) [Example 87, 5-[(1R)-1-Hydroxy-2-{4-[1-hydroxy-2-(4-methyl-1-oxo-1,3-dihydro-2-benzofuran-5-yl)ethyl]piperidin-1-yl}ethyl]-4-methyl-2-benzofuran-1(3H)-one] | ≤ 0.2 µM | ≤ 0.1 µM
Cc1c(CCN2CCC(NCc3ccc4c(c3)COC4=O)CC2)ccc2c1COC2=O [Example 88, 4-Methyl-5-[2-(4-{[(1-oxo-1,3-dihydro-2-benzofuran-5-yl)methyl]amino}piperidin-1-yl)ethyl]-2-benzofuran-1(3H)-one] | ≤ 0.2 µM | ≤ 0.1 µM
Cc1c(CCN2CCC(NCc3ccc(C#N)c(F)c3)CC2)ccc2c1COC2=O [Example 90, 2-Fluoro-4-[({1-[2-(4-methyl-1-oxo-1,3-dihydro-2-benzofuran-5-yl)ethyl]piperidin-4-yl}amino)methyl]benzonitrile] | ≤ 0.5 µM | ≤ 0.2 µM
Cc1c([C@@H](O)CN2[C@@H]3CC[C@H]2CC(Nc2ccc(C#N)cn2)C3)ccc2c1COC2=O (stereo partly drawn) [Example 112, 6-((1R,5S)-8-((R)-2-Hydroxy-2-(4-methyl-1-oxo-1,3-dihydroisobenzofuran-5-yl)ethyl)-8-azabicyclo[3.2.1]octan-3-ylamino)nicotinonitrile] |  | ≤ 0.1 µM
Cc1c([C@@H](O)CN2CCC(CS(=O)(=O)c3ccc4c(c3C)COC4=O)CC2)ccc2c1COC2=O [Example 99] |  | ≤ 0.1 µM

Now from value to compound:

IC50 [1] | IC50 [2] | Structure (SMILES)
≤ 0.2 µM | ≤ 0.1 µM | Cc1c(C(O)CC2CCN(C[C@H](O)c3ccc4c(c3C)COC4=O)CC2)ccc2c1COC2=O (stereo partly drawn) [Example 86, 5-[(1R)-1-Hydroxy-2-{4-[2-hydroxy-2-(4-methyl-1-oxo-1,3-dihydro-2-benzofuran-5-yl)ethyl]piperidin-1-yl}ethyl]-4-methyl-2-benzofuran-1(3H)-one]
≤ 0.5 µM | ≤ 0.2 µM | Cc1c(CCN2CCC(NCc3ccc4nonc4c3)CC2)ccc2c1COC2=O [Example 89, 5-(2-{4-[(2,1,3-Benzoxadiazol-5-ylmethyl)amino]piperidin-1-yl}ethyl)-4-methyl-2-benzofuran-1(3H)-one]
≤ 0.5 µM | ≤ 0.2 µM | O=C1OCc2cc(SC3CCN(CC(O)c4ccc5c(c4)COC5=O)CC3)ccc21 (stereo not drawn) [Example 85, 5-({1-[2-hydroxy-2-(1-oxo-1,3-dihydro-2-benzofuran-5-yl)ethyl]piperidin-4-yl}sulfanyl)-2-benzofuran-1(3H)-one]
 | ≤ 0.1 µM | Cc1c(SCC2CCN(C[C@H](O)c3ccc4c(c3C)COC4=O)CC2)ccc2c1COC2=O [Example 94, 5-[({1-[(2R)-2-Hydroxy-2-(4-methyl-1-oxo-1,3-dihydro-2-benzofuran-5-yl)ethyl]piperidin-4-yl}methyl)sulfanyl]-4-methyl-2-benzofuran-1(3H)-one]
